According to patent publication US4742053A, “3-Isoquinoliniomethyl cephalosporin derivatives” (Banyu Pharmaceutical Co., Ltd., priority 1984, dated 1988):
Values after ≈ are worked out from the molar mass of the structure shown. Like-named read-outs stand apart in the source and are kept apart here.

Experiments:
Assay in all cases: MIC by agar plate dilution method
Assay type in all cases: cell-based
P. aeruginosa AKR17 = settings: Pseudomonas aeruginosa, AKR17, P. aeruginosa AKR17; 10^6 CFU/ml; read-out: Minimum Inhibitory Concentration
Experimental: (§1) The minimum inhibitory concentrations (MIC: μg/ml) of the compounds of the present invention against various microorganisms were measured by an agar plate dilution method (inoculum size: 10^6 CFU/ml) by using Sensitivity Disk Agar (Nissui) in comparison with Cefotaxime and Ceftazidime as comparative compounds.
(§2) Minimum Inhibitory Concentration (μg/ml; 10^6 CFU/ml)

E. coli W3630/Rms212 = settings: Escherichia coli, W3630/RMS212, read-out: Minimum Inhibitory Concentration, E. coli W3630/Rms212; 10^6 CFU/ml
Experimental: as §1, §2

E. coli NIHJJC-2 = settings: Escherichia coli, NIHJJC2, E. coli NIHJJC-2; 10^6 CFU/ml; read-out: Minimum Inhibitory Concentration
Experimental: as §1, §2

E. coli ML1410/Rte16 = settings: Escherichia coli, ML1410/RTE16, read-out: Minimum Inhibitory Concentration, E. coli ML1410/Rte16; 10^6 CFU/ml
Experimental: as §1, §2

P. aeruginosa AK109 = settings: Pseudomonas aeruginosa, AK109, P. aeruginosa AK109; 10^6 CFU/ml; read-out: Minimum Inhibitory Concentration
Experimental: as §1, §2

A. calcoaceticus No. 14 = settings: Acinetobacter calcoaceticus, NO.14, A. calcoaceticus No. 14; 10^6 CFU/ml; read-out: Minimum Inhibitory Concentration
Experimental: as §1, §2

P. cepacia 23 = settings: Burkholderia cepacia; P. cepacia 23; 10^6 CFU/ml; read-out: Minimum Inhibitory Concentration
Experimental: as §1, §2

E. coli W3630/Rms213 = settings: Escherichia coli, W3630/RMS213, read-out: Minimum Inhibitory Concentration, E. coli W3630/Rms213; 10^6 CFU/ml
Experimental: as §1, §2

P. maltophilia IID 1275 = settings: Stenotrophomonas maltophilia, IID1275; P. maltophilia IID 1275; 10^6 CFU/ml; read-out: Minimum Inhibitory Concentration
Experimental: as §1, §2

S. aureus NIHJJC-1 = settings: Staphylococcus aureus
Experimental: as §1, §2

P. vulgaris No. 33 = settings: Proteus vulgaris
Experimental: as §1, §2

S. aureus JS-1 = settings: Staphylococcus aureus, JS1; S. aureus JS-1; 10^6 CFU/ml; read-out: Minimum Inhibitory Concentration
Experimental: as §1, §2

P. vulgaris OB1043 = settings: Proteus vulgaris, OB1043, P. vulgaris OB1043; 10^6 CFU/ml; read-out: Minimum Inhibitory Concentration
Experimental: as §1, §2

C. freundii No. 7 = settings: Citrobacter freundii; C. freundii No. 7; 10^6 CFU/ml; read-out: Minimum Inhibitory Concentration
Experimental: as §1, §2

E. coli CSH = settings: Escherichia coli, 10^6 CFU/ml, read-out: Minimum Inhibitory Concentration
Experimental: as §1, §2

K. pneumoniae No. 42 = settings: Klebsiella pneumoniae; K. pneumoniae No. 42; 10^6 CFU/ml; read-out: Minimum Inhibitory Concentration
Experimental: as §1, §2

P. mirabilis JY10 = settings: Proteus mirabilis
Experimental: as §1, §2

E. cloaceae Nek 39 = settings: E. cloaceae Nek 39; 10^6 CFU/ml; read-out: Minimum Inhibitory Concentration
Experimental: as §1, §2

S. marcescens No. 16-2 = settings: Serratia marcescens
Experimental: as §1, §2

E. coli CSH2 = settings: Escherichia coli, 10^6 CFU/ml, read-out: Minimum Inhibitory Concentration
Experimental: as §1, §2

E. coli C/Rms149 = settings: Escherichia coli, read-out: Minimum Inhibitory Concentration, E. coli C/Rms149; 10^6 CFU/ml
Experimental: as §1, §2

[1] = NIHJJC1, S. aureus NIHJJC-1, 10^6 CFU/ml, read-out: Minimum Inhibitory Concentration
[2] = P. vulgaris No. 33, 10^6 CFU/ml, read-out: Minimum Inhibitory Concentration
[3] = NO.162, read-out: Minimum Inhibitory Concentration
[4] = P. mirabilis JY10, 10^6 CFU/ml, read-out: Minimum Inhibitory Concentration
[5] = NO.162, S. marcescens No. 16-2, 10^6 CFU/ml, read-out: Minimum Inhibitory Concentration

SMILES	MIC (P. aeruginosa AKR17)	MIC (E. coli W3630/Rms212)	MIC (E. coli NIHJJC-2)	MIC (E. coli ML1410/Rte16)	MIC (P. aeruginosa AK109)	MIC (A. calcoaceticus No. 14)	MIC (P. cepacia 23)	MIC (E. coli W3630/Rms213)	MIC (P. maltophilia IID 1275)	MIC (S. aureus NIHJJC-1; [1])	MIC (P. vulgaris No. 33; [2])	MIC (S. aureus JS-1)	MIC (P. vulgaris OB1043)	MIC (C. freundii No. 7)	MIC (E. coli CSH)	MIC (K. pneumoniae No. 42)	MIC (E. cloaceae Nek 39)	MIC (E. coli CSH2)	MIC (E. coli C/Rms149)	MIC (P. mirabilis JY10; [4])	also measured
CC(C)ON=C(C(=O)NC1C(=O)N2C(C(=O)[O-])=C(C[N+]3(C)CCc4cc(O)c(O)cc4C3)CSC12)c1csc(N)n1 (stereo not drawn) [Ex. 13, 7-[(Z)-2-(2-aminothiazol-4-yl)-2-isopropoxyiminoacetamido]-3-(6,7-dihydroxy-2-methyl-1,2,3,4-tetrahydro-2-isoquinolinium)methyl-3-cephem-4-carboxylate]	0.2 µg/mL (≈ 0.332 µM)	0.0125 µg/mL (≈ 0.0207 µM)	0.05 µg/mL (≈ 0.083 µM)	0.025 µg/mL (≈ 0.0415 µM)	0.05 µg/mL (≈ 0.083 µM)	0.2 µg/mL (≈ 0.332 µM)	0.05 µg/mL (≈ 0.083 µM)	0.05 µg/mL (≈ 0.083 µM)	12.5 µg/mL (≈ 20.7 µM)	3.12 µg/mL (≈ 5.18 µM)	0.1 µg/mL (≈ 0.166 µM)	12.5 µg/mL (≈ 20.7 µM)	0.2 µg/mL (≈ 0.332 µM)	3.12 µg/mL (≈ 5.18 µM)	0.05 µg/mL (≈ 0.083 µM)	0.1 µg/mL (≈ 0.166 µM)	6 ng/mL (≈ 0.00996 µM)	0.05 µg/mL (≈ 0.083 µM)	0.025 µg/mL (≈ 0.0415 µM)		MIC (P. mirabilis JY10; JY10, read-out: Minimum Inhibitory Concentration): 0.39 µg/mL (≈ 0.647 µM); MIC (S. marcescens No. 16-2; [3]): 1.56 µg/mL (≈ 2.59 µM)
C[N+]1(CC2=C(C(=O)[O-])N3C(=O)C(NC(=O)C(=NOCC(=O)O)c4csc(N)n4)C3SC2)CCc2cc(O)c(O)cc2C1 (stereo not drawn) [Ex. 14-F, 7-[(Z)-2-(2-aminothiazol-4-yl)-2-carboxymethoxyiminoacetamido]-3-(6,7-dihydroxy-2-methyl-1,2,3,4-tetrahydro-2-isoquinolinium)methyl-3-cephem-4-carboxylate]	0.1 µg/mL (≈ 0.162 µM)	0.006 µg/mL (≈ 0.0097 µM)	0.025 µg/mL (≈ 0.0404 µM)	0.025 µg/mL (≈ 0.0404 µM)	0.05 µg/mL (≈ 0.0808 µM)	0.1 µg/mL (≈ 0.162 µM)	0.05 µg/mL (≈ 0.0808 µM)	0.1 µg/mL (≈ 0.162 µM)	3.12 µg/mL (≈ 5.04 µM)	12.5 µg/mL (≈ 20.2 µM)		50 µg/mL (≈ 80.8 µM)	0.1 µg/mL (≈ 0.162 µM)	0.78 µg/mL (≈ 1.26 µM)	0.05 µg/mL (≈ 0.0808 µM)	0.05 µg/mL (≈ 0.0808 µM)	6 ng/mL (≈ 0.0097 µM)	0.025 µg/mL (≈ 0.0404 µM)	0.025 µg/mL (≈ 0.0404 µM)	0.2 µg/mL (≈ 0.323 µM)	MIC (P. vulgaris No. 33; NO.33, read-out: Minimum Inhibitory Concentration): 0.05 µg/mL (≈ 0.0808 µM); MIC (S. marcescens No. 16-2; [5]): 0.39 µg/mL (≈ 0.63 µM)
CC(C)(ON=C(C(=O)NC1C(=O)N2C(C(=O)[O-])=C(C[N+]3(C)CCc4cc(O)c(O)cc4C3)CSC12)c1csc(N)n1)C(=O)O (stereo not drawn) [Ex. 15, 7-[(Z)-2-(2-aminothiazol-4-yl)-2-(1-carboxy-1-methylethoxyimino)acetamido]-3-(6,7-dihydroxy-2-methyl-1,2,3,4-tetrahydro-2-isoquinolinium)methyl-3-cephem-4-carboxylate]	0.05 µg/mL (≈ 0.0773 µM)	0.025 µg/mL (≈ 0.0387 µM)	0.025 µg/mL (≈ 0.0387 µM)	0.025 µg/mL (≈ 0.0387 µM)	0.025 µg/mL (≈ 0.0387 µM)	0.78 µg/mL (≈ 1.21 µM)	0.025 µg/mL (≈ 0.0387 µM)	0.025 µg/mL (≈ 0.0387 µM)	3.12 µg/mL (≈ 4.82 µM)	12.5 µg/mL (≈ 19.3 µM)	1 µg/mL (≈ 1.55 µM)	100 µg/mL (≈ 155 µM)	0.05 µg/mL (≈ 0.0773 µM)	0.2 µg/mL (≈ 0.309 µM)	0.05 µg/mL (≈ 0.0773 µM)	0.05 µg/mL (≈ 0.0773 µM)	< 6 ng/mL	0.025 µg/mL (≈ 0.0387 µM)	0.0125 µg/mL (≈ 0.0193 µM)	0.1 µg/mL (≈ 0.155 µM)	MIC (S. marcescens No. 16-2; [5]): 0.39 µg/mL (≈ 0.603 µM)
C[N+]1(CC2=C(C(=O)[O-])N3C(=O)C(NC(=O)C(=NOC4CCCC4)c4csc(N)n4)C3SC2)CCc2cc(O)c(O)cc2C1 (stereo not drawn) [Ex. 16-D, 7-[(Z)-2-(2-aminothiazol-4-yl)-2-cyclopentyloxyiminoacetamido]-3-(6,7-dihydroxy-2-methyl-1,2,3,4-tetrahydro-2-isoquinolinium)methyl-3-cephem-4-carboxylate]	0.2 µg/mL (≈ 0.318 µM)	0.0125 µg/mL (≈ 0.0199 µM)	0.1 µg/mL (≈ 0.159 µM)	0.025 µg/mL (≈ 0.0398 µM)	0.05 µg/mL (≈ 0.0795 µM)	1.56 µg/mL (≈ 2.48 µM)	0.0125 µg/mL (≈ 0.0199 µM)	0.1 µg/mL (≈ 0.159 µM)	12.5 µg/mL (≈ 19.9 µM)		0.1 µg/mL (≈ 0.159 µM)	12.5 µg/mL (≈ 19.9 µM)	0.2 µg/mL (≈ 0.318 µM)	1.56 µg/mL (≈ 2.48 µM)	0.1 µg/mL (≈ 0.159 µM)	0.1 µg/mL (≈ 0.159 µM)	12.5 ng/mL (≈ 0.0199 µM)	0.1 µg/mL (≈ 0.159 µM)	0.025 µg/mL (≈ 0.0398 µM)	0.2 µg/mL (≈ 0.318 µM)	MIC (S. aureus NIHJJC-1; NIHJJC1, read-out: Minimum Inhibitory Concentration): 1.56 µg/mL (≈ 2.48 µM); MIC (S. marcescens No. 16-2; [3]): 1.56 µg/mL (≈ 2.48 µM)
